Results as given in article PMC12693416, “From Lipid Regulation to Neuroprotection: Multitarget (Benzo)thiazine Derivatives as Promising Leads” (Molecules, 2025).
Like-named read-outs stand apart in the source and are kept apart here.

Experiments:
[1] = molecular target: soybean lipoxygenase (LOX-3); experiment: Soybean lipoxygenase (LOX-3) inhibition; type: biochemical; details: after 5 min of incubation; sodium linoleate 100 μM, pH 9.0
Procedure: Lipoxygenase (LOX) inhibitory activity was determined using soybean lipoxygenase (250 U/mL) and sodium linoleate (100 μM) as substrate, in Tris–HCl buffer pH 9.0.

[2] = molecular target: T1, acetylcholinesterase from eel (Electrophorus electricus, UniProt O42275); experiment: Acetylcholinesterase (AChE) inhibition (Ellman); type: biochemical; details: read-out: AChE Inhibition (%), 300 μM compound
T1 construct: purchased Sigma
Procedure: (0.31 mM) in phosphate buffer with pH = 7. The incubation mixture is monitored for 7 min at 37 °C.

[3] = Radical scavenging of DPPH; details: DPPH 200 μM, 30 min incubation
Procedure: Compounds, dissolved in absolute methanol, at concentrations of 25–400 μM, were added to an equal volume of a methanolic solution of DPPH (final concentration 200 μM) at room temperature (22 ± 2 °C).

[4] = Iron chelation (ferrozine assay); details: for % of Fe(II) Chelation at 10 μM: 10 μM compound; for % of Fe(II) Chelation (at 100 μM): 100 μM compound, Fe2+ 20 μM
Procedure: […] The reaction was initiated with the addition of a 100 μM aqueous ferrozine solution, which chelates iron ions, resulting in an increased maximum absorbance at 562 nm. After incubation at 37 °C for 10 min, the mixture’s absorbance is measured at 562/700 nm. Each value is expressed as the mean of 3 tests per sample [46].

[5] = test system: carrageenan-induced mouse paw edema; experiment: Carrageenan-induced mouse paw edema; type: in vivo, C57BL/6 mice; details: ip, 3.5 h, i.p. 0.30 mmol/kg, female C57BL/6, 3.5 h after carrageenan, read-out: % Edema (decrease of carrageenan-induced paw edema vs control)
Procedure: For the in vivo anti-inflammatory activity, C57BL/6 mice were injected with 0.025 mL carrageenan (2% w/v solution in saline) i.d. into the right hind paw, the left paw serving as control. The test compounds dissolved in saline (300 μmol/kg) were given i.p. right after the carrageenan injection, and 3.5 h later the produced edema was estimated as paw weight increase. Results are expressed as percentage of reduction in paw-edema and are the mean of 6 animals (per compound).

[6] = test system: hyperlipidaemic mice; experiment: Tyloxapol (Triton WR 1339)-induced hyperlipidemia, plasma lipid parameters; type: in vivo; details: i.p. 84 μmol/kg; for change in vivo at 84 µmol/kg / inhibition in vivo at 84 µmol/kg: Mus musculus, ip, 24 h
Procedure: An aqueous solution of Triton WR 1339 was given i.p. to mice (400 mg/kg of body weight) and one hour later the test compounds (84 μmol/kg of body weight), dissolved in saline or saline only, were administered i.p. After 24 h, blood was taken from the aorta/heart and used for the determination of plasma total cholesterol (TC), triglyceride (TG) levels, and high-density lipoprotein (HDL) levels, using commercially available kits (Biosis Cholesterol Enzymatic/PAP, Biosis Triglycerides GPO/PAP, and Biosis HDL Phosphovolframic, Biosis, Athens Greece). Levels of plasma lipids were determined in duplicate while values presented are the mean from 8 animals (per compound). The levels of low-density lipoprotein (LDL) are calculated according to the equation: LDL (mg/dL) = 3/4 * (TC-HDL).

[7] = test system: mouse liver microsomal lipid peroxidation; experiment: Inhibition of mouse liver microsomal lipid peroxidation (LP); details: for IC50: read-out: LP IC50 Value, 45 min incubation; for LP % Inhibition at 100 μΜ: 100 μM compound
[8] = test system: plasma of hyperlipidaemic mice; experiment: Total antioxidant capacity (TAC) of plasma in hyperlipidaemic mice; type: in vivo; details: Mus musculus, ip, 24 h, i.p. 84 μmol/kg, read-out: Total Antioxidant Capacity (TAC) Increase (%)
[9] = plasma, vs tyloxapol control, read-out: % HDL Increase
[10] = LDL calculated as 3/4*(TC-HDL), read-out: % LDL Decrease
[11] = plasma, vs tyloxapol control, read-out: % Total Cholesterol (TC) Reduction
[12] = plasma, vs tyloxapol control, read-out: % Triglycerides (TG) Reduction
[13] = ratio calculated, read-out: % HDL/LDL Increase (antiatherogenic index)

T1 sequence (O42275 24-633): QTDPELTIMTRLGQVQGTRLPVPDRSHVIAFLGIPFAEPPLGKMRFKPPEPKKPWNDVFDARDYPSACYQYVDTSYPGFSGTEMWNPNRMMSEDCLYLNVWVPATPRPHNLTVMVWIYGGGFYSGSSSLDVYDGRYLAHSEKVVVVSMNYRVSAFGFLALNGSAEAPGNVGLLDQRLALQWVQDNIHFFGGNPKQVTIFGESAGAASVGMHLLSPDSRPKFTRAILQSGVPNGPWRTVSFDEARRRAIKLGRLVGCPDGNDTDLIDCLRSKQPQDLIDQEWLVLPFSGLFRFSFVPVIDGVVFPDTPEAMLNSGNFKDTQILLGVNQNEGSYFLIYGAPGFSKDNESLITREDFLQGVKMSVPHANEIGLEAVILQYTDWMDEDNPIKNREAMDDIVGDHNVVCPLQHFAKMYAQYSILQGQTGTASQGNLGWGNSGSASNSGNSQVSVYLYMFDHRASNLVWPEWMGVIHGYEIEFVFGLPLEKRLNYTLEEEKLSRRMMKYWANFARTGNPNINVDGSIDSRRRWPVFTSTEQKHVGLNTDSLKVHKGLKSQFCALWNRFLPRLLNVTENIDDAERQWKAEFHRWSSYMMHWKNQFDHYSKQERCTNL

Compound	IC50 [1]	inhibition at 300 µM [2]	IC50 [3]	% of Fe(II) Chelation at 10 μM [4]	% of Fe(II) Chelation (at 100 μM) [4]	inhibition in vivo at 300 µmol/kg [5]	change in vivo at 84 µmol/kg [6, 9]	inhibition in vivo at 84 µmol/kg [6, 10]	inhibition in vivo at 84 µmol/kg [6, 11]	inhibition in vivo at 84 µmol/kg [6, 12]	IC50 [7]	change in vivo at 84 µmol/kg [8]	LP % Inhibition at 100 μΜ [7]	change in vivo at 84 µmol/kg [6, 13]	% HDL, value marked footnote 2: decrease percentage ([6]; plasma, HDL decrease, not increase)
O=C(c1cc(O)c(O)c(O)c1)N1CCSC(c2ccc(-c3ccccc3)cc2)C1 (stereo not drawn) [Compound 3, (2-([1,1′-Biphenyl]-4-yl)thiomorpholino)(3,4,5-trihydroxyphenyl)methanone]	4 µM	10%	31 µM	56%	89%	≤ 60%	49%	79%	51%	86%	8 µM				
O=C1O[C@H]([C@@H](O)CO)C(O)=C1O [ascorbic acid, reference compound]			42 µM												
CC(C)(C)c1cc(/C=C/C(=O)O)cc(C(C)(C)C)c1O [acrylic derivative, (E)-3-(3,5-ditertbutyl-4-hydroxyphenyl)acrylic acid, reference compound]			77 µM												
CC(C)(C)c1cc(/C=C/C(=O)N2CC(c3ccc(-c4ccccc4)cc3)Sc3ccccc32)cc(C(C)(C)C)c1O (stereo not drawn) [Compound 16, (E)-1-(2-([1,1′-Biphenyl]-4-yl)-2,3-dihydro-4H-benzo[b][1,4]thiazin-4-yl)-3-(3,5-ditertbutyl-4-hydroxyphenyl)prop-2-en-1-one]	58 µM	24%	141 µM		9%	45%	131%	66%	45%	67%	> 1000 µM				
CC(C)Cc1ccc(C(C)C(=O)N2CC(c3ccc(-c4ccccc4)cc3)Sc3ccccc32)cc1 (stereo not drawn) [Compound 17, 1-(2-([1,1′-Biphenyl]-4-yl)-2,3-dihydro-4H-benzo[b][1,4]thiazin-4-yl)-2-(4-isobutylphenyl)propan-1-one]	104 µM	13%	> 400 µM		29%	39%	43%	68%	45%	58%	> 1000 µM	139%			
CC(C)Cc1ccc(C(C)C(=O)N2CCSC(c3ccc(-c4ccccc4)cc3)C2)cc1 (stereo not drawn) [Compound 7, 1-(2-([1,1′-Biphenyl]-4-yl)thiomorpholino)-2-(4-isobutylphenyl)propan-1-one]	22 µM	27%	> 400 µM		3%	27%			27%	70%	299 µM	0%			
Cc1cc(C(C)(C)C)c(O)c(C(C)(C)C)c1 [BHT, butylated hydroxytoluene, reference compound]			31 µM		0%								0%		
COc1ccc2cc([C@H](C)C(=O)O)ccc2c1 [naproxen, reference compound]	25 µM														
O=C(c1cc(O)c(O)c(O)c1)N1CC(c2ccc(-c3ccccc3)cc2)Sc2ccccc21 (stereo not drawn) [Compound 13, (2-([1,1′-Biphenyl]-4-yl)-2,3-dihydro-4H-benzo[b][1,4]thiazin-4-yl)(3,4,5-trihydroxyphenyl)methanone]	37 µM	~45%	36 µM	12%	91%	≤ 60%	25%	62%	47%	53%	24 µM	60%			
O=C(O)c1cc(O)c(O)c(O)c1 [gallic acid, reference compound]			14 µM		98%								73%		
Cc1c(C)c2c(c(C)c1O)CCC(C)(C(=O)O)O2 (stereo not drawn) [Trolox, 6-hydroxy-2,5,7,8-tetramethylchroman-2-carboxylic acid, reference compound]			33 µM		29%								43%		
CC(C)(C)c1cc(/C=C/C(=O)N2CCSC(c3ccc(-c4ccccc4)cc3)C2)cc(C(C)(C)C)c1O (stereo not drawn) [Compound 6, (E)-1-(2-([1.1′-Biphenyl]-4-yl)thiomorpholino)-3-(3,5-ditertbutyl-4-hydroxyphenyl)prop-2-en-1-one]	252 µM	~45%	288 µM		0%	33%		49%	36%	65%	> 500 µM			43%	23 **^,2%
COc1cc(/C=C/C(=O)N2CCSC(c3ccc(-c4ccccc4)cc3)C2)ccc1O (stereo not drawn) [Compound 1, (E)-1-(2-([1,1′-Biphenyl]-4-yl)thiomorpholino)-3-(4-hydroxy-3-methoxyphenyl)prop-2-en-1-one]	68 µM	22%	166 µM		19%	≤ 60%	84%	59%	40%	83%	6 µM				
Cc1c(C)c2c(c(C)c1O)CCC(C)(C(=O)N1CCSC(c3ccc(-c4ccccc4)cc3)C1)O2 (stereo not drawn) [Compound 10]	140 µM	~45%	78 µM		0%	43%	32%	23%	13%	52%	4 µM			77%	
CC(C)Cc1ccc(C(C)C(=O)O)cc1 (stereo not drawn) [ibuprofen, reference compound]	> 300 µM														
O=C(O)/C=C/c1ccccc1 [cinnamic acid, reference compound]	> 300 µM														
